Reference: PubChem BioAssay AID2060489 (Molecular Pharmacology Branch, DTP, NCI, 2025)
Values belong to the compound of their own block, whether it stands above or below them.

Test system: 922993-354-T-J3-PDC complex spheroids, viability
Test: Anticancer human tumor 922993-354-T-J3-PDC patient-derived endometrial carcinoma cell line growth inhibition [GQUAD]
Details: for IC50: curve of first compound; for viability, T/C: stronger effect = lower value
Procedure, shortened: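 Multi-cell-type spheroids of tumor cells with HUVEC and mesenchymal stem cells, treated with drug combinations. Concentrations descend in half-log steps from near clinical Cmax, or from 10 microM where Cmax is unknown; viability read-out.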

[1] = second compound 0.0316 µM, first compound 0.0316 µM
[2] = second compound 0.0316 µM, first compound 0.1 µM
[3] = second compound 0.0316 µM, first compound 0.316 µM
[4] = second compound 0.0316 µM, first compound 1 µM
[5] = second compound 0.0316 µM, first compound 3.16 µM
[6] = second compound 0.0316 µM, first compound 10 µM
[7] = second compound 0.1 µM, first compound 0.0316 µM
[8] = second compound 0.1 µM, first compound 0.1 µM
[9] = second compound 0.1 µM, first compound 0.316 µM
[10] = second compound 0.1 µM, first compound 1 µM
[11] = second compound 0.1 µM, first compound 3.16 µM
[12] = second compound 0.1 µM, first compound 10 µM
[13] = second compound 0.316 µM, first compound 0.0316 µM
[14] = second compound 0.316 µM, first compound 0.1 µM
[15] = second compound 0.316 µM, first compound 0.316 µM
[16] = second compound 0.316 µM, first compound 1 µM
[17] = second compound 0.316 µM, first compound 3.16 µM
[18] = second compound 0.316 µM, first compound 10 µM
[19] = second compound 1 µM, first compound 0.0316 µM
[20] = second compound 1 µM, first compound 0.1 µM
[21] = second compound 1 µM, first compound 0.316 µM
[22] = second compound 1 µM, first compound 1 µM
[23] = second compound 1 µM, first compound 3.16 µM
[24] = second compound 1 µM, first compound 10 µM
[25] = second compound 3.16 µM, first compound 0.0316 µM
[26] = second compound 3.16 µM, first compound 0.1 µM
[27] = second compound 3.16 µM, first compound 0.316 µM
[28] = second compound 3.16 µM, first compound 1 µM
[29] = second compound 3.16 µM, first compound 3.16 µM
[30] = second compound 3.16 µM, first compound 10 µM
[31] = second compound 10 µM, first compound 0.0316 µM
[32] = second compound 10 µM, first compound 0.1 µM
[33] = second compound 10 µM, first compound 0.316 µM
[34] = second compound 10 µM, first compound 1 µM
[35] = second compound 10 µM, first compound 3.16 µM
[36] = second compound 10 µM, first compound 10 µM
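Further: spheroids exposed to compounds for seven days.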
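Wherever viability, T/C is given: 100% = DMSO vehicle control viability.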

IC50 (second compound 0.0316 µM): > 10 µM | IC50 (second compound 0.1 µM): 4.16 µM | IC50 (second compound 0.316 µM): < 0.0316 µM | IC50 (second compound 1 µM): > 10 µM | IC50 (second compound 3.16 µM): < 0.0316 µM | IC50 (second compound 10 µM): < 0.0316 µM
Structure (SMILES): Cc1cccc(N(C)C(=O)C2C(O)CCN2c2nc(C)cc(C(F)(F)F)c2C#N)c1 (stereo not drawn) + Cc1cnc(CNC(=O)c2c(=O)c3ccc(N4CCCN(C)CC4)nc3n3c2sc2ccccc23)cn1
viability, T/C [1]: 78% | viability, T/C [2]: 87.2% | viability, T/C [3]: 88% | viability, T/C [4]: 77.9% | viability, T/C [5]: 74.6% | viability, T/C [6]: 68.6% | viability, T/C [7]: 65.1% | viability, T/C [8]: 62.4% | viability, T/C [9]: 59% | viability, T/C [10]: 52.9% | viability, T/C [11]: 55.8% | viability, T/C [12]: 43.9% | viability, T/C [13]: 50.3% | viability, T/C [14]: 42.7% | viability, T/C [15]: 43.4% | viability, T/C [16]: 53.7% | viability, T/C [17]: 45.5% | viability, T/C [18]: 47.1% | viability, T/C [19]: 54.7% | viability, T/C [20]: 59% | viability, T/C [21]: 54.4% | viability, T/C [22]: 46.1% | viability, T/C [23]: 57.8% | viability, T/C [24]: 53.5% | viability, T/C [25]: 50.9% | viability, T/C [26]: 44.4% | viability, T/C [27]: 41.3% | viability, T/C [28]: 46.1% | viability, T/C [29]: 51.1% | viability, T/C [30]: 44.6% | viability, T/C [31]: 39.6% | viability, T/C [32]: 48.5% | viability, T/C [33]: 56.8% | viability, T/C [34]: 39.1% | viability, T/C [35]: 50.6% | viability, T/C [36]: 41.4%

IC50 (second compound 0.0316 µM): > 10 µM | IC50 (second compound 0.1 µM): 0.777 µM | IC50 (second compound 0.316 µM): 0.037 µM | IC50 (second compound 1 µM): 0.0642 µM | IC50 (second compound 3.16 µM): < 0.0316 µM | IC50 (second compound 10 µM): < 0.0316 µM
Structure (SMILES): CCCS(=O)(=O)Nc1ccc(F)c(C(=O)c2c[nH]c3ncc(-c4ccc(Cl)cc4)cc23)c1F + Cc1cnc(CNC(=O)c2c(=O)c3ccc(N4CCCN(C)CC4)nc3n3c2sc2ccccc23)cn1
viability, T/C [1]: 93.5% | viability, T/C [2]: 83.8% | viability, T/C [3]: 83.3% | viability, T/C [4]: 78.4% | viability, T/C [5]: 84.6% | viability, T/C [6]: 63.8% | viability, T/C [7]: 60.9% | viability, T/C [8]: 62.2% | viability, T/C [9]: 56.1% | viability, T/C [10]: 45.5% | viability, T/C [11]: 42.2% | viability, T/C [12]: 40% | viability, T/C [13]: 51.2% | viability, T/C [14]: 40.9% | viability, T/C [15]: 42.3% | viability, T/C [16]: 47.4% | viability, T/C [17]: 34.6% | viability, T/C [18]: 46.4% | viability, T/C [19]: 51.4% | viability, T/C [20]: 52.3% | viability, T/C [21]: 46.3% | viability, T/C [22]: 36.8% | viability, T/C [23]: 47.7% | viability, T/C [24]: 48.2% | viability, T/C [25]: 39.7% | viability, T/C [26]: 47.2% | viability, T/C [27]: 43.6% | viability, T/C [28]: 42% | viability, T/C [29]: 58% | viability, T/C [30]: 37.9% | viability, T/C [31]: 43.5% | viability, T/C [32]: 37% | viability, T/C [33]: 36.9% | viability, T/C [34]: 35.9% | viability, T/C [35]: 37.9% | viability, T/C [36]: 20.1%

Structure (SMILES): CC(=O)O[C@H]1C(=O)[C@@]2(C)[C@H]([C@H](OC(=O)c3ccccc3)[C@]3(O)C[C@H](OC(=O)[C@H](O)[C@@H](NC(=O)c4ccccc4)c4ccccc4)C(C)=C1C3(C)C)[C@]1(OC(C)=O)CO[C@@H]1C[C@@H]2O + Cc1[nH]c2ccc(F)cc2c1-c1nc2c3cccnc3c3ncccc3c2[nH]1
IC50 (second compound 0.0316 µM): 6.76 µM | IC50 (second compound 0.1 µM): > 10 µM | IC50 (second compound 0.316 µM): > 10 µM | IC50 (second compound 1 µM): 9.27 µM | IC50 (second compound 3.16 µM): 8.19 µM | IC50 (second compound 10 µM): > 10 µM | viability, T/C [1]: 109% | viability, T/C [2]: 84.6% | viability, T/C [3]: 124% | viability, T/C [4]: 115% | viability, T/C [5]: 68.4% | viability, T/C [6]: 40.5% | viability, T/C [7]: 124% | viability, T/C [8]: 87.3% | viability, T/C [9]: 96.6% | viability, T/C [10]: 119% | viability, T/C [11]: 75.7% | viability, T/C [12]: 49.6% | viability, T/C [13]: 98.8% | viability, T/C [14]: 90.4% | viability, T/C [15]: 136% | viability, T/C [16]: 89.2% | viability, T/C [17]: 88.1% | viability, T/C [18]: 50.3% | viability, T/C [19]: 103% | viability, T/C [20]: 126% | viability, T/C [21]: 119% | viability, T/C [22]: 109% | viability, T/C [23]: 81.3% | viability, T/C [24]: 47.8% | viability, T/C [25]: 104% | viability, T/C [26]: 115% | viability, T/C [27]: 124% | viability, T/C [28]: 136% | viability, T/C [29]: 93.6% | viability, T/C [30]: 40.9% | viability, T/C [31]: 97.7% | viability, T/C [32]: 94% | viability, T/C [33]: 117% | viability, T/C [34]: 105% | viability, T/C [35]: 86.2% | viability, T/C [36]: 57.7%

IC50 (second compound 0.0316 µM): > 10 µM | IC50 (second compound 0.1 µM): 3.67 µM | IC50 (second compound 0.316 µM): < 0.0316 µM | IC50 (second compound 1 µM): < 0.0316 µM | IC50 (second compound 3.16 µM): < 0.0316 µM | IC50 (second compound 10 µM): < 0.0316 µM
Structure (SMILES): COc1cccc2c1C(=O)c1c(O)c3c(c(O)c1C2=O)CC(O)(C(=O)CO)CC3OC1CC(N)C(O)C(C)O1 (stereo not drawn) + Cc1cnc(CNC(=O)c2c(=O)c3ccc(N4CCCN(C)CC4)nc3n3c2sc2ccccc23)cn1
viability, T/C [1]: 83.7% | viability, T/C [2]: 79.4% | viability, T/C [3]: 67.2% | viability, T/C [4]: 75.3% | viability, T/C [5]: 73.1% | viability, T/C [6]: 55% | viability, T/C [7]: 54.3% | viability, T/C [8]: 71.3% | viability, T/C [9]: 58.3% | viability, T/C [10]: 51.1% | viability, T/C [11]: 53.6% | viability, T/C [12]: 42% | viability, T/C [13]: 52.8% | viability, T/C [14]: 39.7% | viability, T/C [15]: 42.1% | viability, T/C [16]: 40.4% | viability, T/C [17]: 60.5% | viability, T/C [18]: 42.2% | viability, T/C [19]: 50.6% | viability, T/C [20]: 40.2% | viability, T/C [21]: 37.1% | viability, T/C [22]: 43.2% | viability, T/C [23]: 52.2% | viability, T/C [24]: 38.8% | viability, T/C [25]: 38.5% | viability, T/C [26]: 41.3% | viability, T/C [27]: 41.3% | viability, T/C [28]: 41.8% | viability, T/C [29]: 51% | viability, T/C [30]: 27.4% | viability, T/C [31]: 44.9% | viability, T/C [32]: 40.2% | viability, T/C [33]: 46.6% | viability, T/C [34]: 50.5% | viability, T/C [35]: 36.8% | viability, T/C [36]: 11.8%
